One test concerns the target full-length human LSD1 (Homo sapiens (Human), UniProt O60341). The experiment in a line: In vitro enzyme inhibition assay LSD-1 (TR-FRET). The test is classed as biochemical. Conditions: H3K4me1-biotin peptide. As for the experimental part: This assay determines the ability of a test compound to inhibit LSD1 demethylase activity.
The enzymatic assay of LSD1 activity is based on Time Resolved-Fluorescence Resonance Energy Transfer (TR-FRET) detection.
Plates were read by EnVision Multilabel Reader in TR-FRET mode (excitation at 320 nm, emission at 615 nm and 665 nm) after 1 hour incubation at room temperature.
The ability of the compounds disclosed herein to inhibit LSD1 activity was quantified and the respective IC50 value was determined.
In general terms: In TR-FRET formats the signal depends on donor and acceptor labels being close together.

Another test relates to THP-1 (AML) cells. The experiment in a line: LSD1 CD11b cellular assay (flow cytometry). The format is cell-based. Conditions: Homo sapiens, THP-1, 96 h; CD11b expressing cells, 4 days incubation. As for the experimental part: To analyze LSD1 inhibitor efficacy in cells, a CD11b flow cytometry assay was performed. LSD1 inhibition induces CD11b expression in THP-1 (AML) cells which can be measured by flow cytometry. […] LSD1 test compounds were serially diluted in DMSO. The dilutions were added to each well accordingly to a final concentration of 0.2% DMSO. The cells were incubated at 37 degrees Celsius in 5% CO2 for 4 days. 250 μL of each well was transferred to a well in a 96 well round bottom plate. The plate was centrifuged at 1200 rpm at 4 degrees Celsius in a Beckman Coulter Alegra 6KR centrifuge for 5 minutes. The media was removed leaving the cells at the bottom of the wells. The cells were washed in 100 μL cold HBSS (Hank's Balanced Salt Solution) plus 2% BSA (Bovine Serum Albumin) solution and centrifuged at 1200 rpm at 4 degrees Celsius for 5 minutes. The wash was removed. […] The cells were centrifuged and washed two times in 100 μL HBSS plus 2% BSA. After the final spin the cells were resuspended in 100 μL HBSS plus 2% BSA containing 1 ug/mL DAPI (4′,6-diamidino-2-phenylindole). The cells were then analyzed by flow cytometry in a BD FACSAria machine. Cells were analyzed for CD11b expression. The percent of CD11b expressing cells for each inhibitor concentration was used to determine an IC50 curve for each compound analyzed.
(A flow cytometer gives signals particle by particle.)

Bounds are passed on as bounds.

Broadly, the IC50 is the concentration needed to halve the response being measured. A low value points to inhibition by little substance. Consider `COc1ccc(-c2c(-c3ccc(C#N)nc3)nc(N3CCC(N)CC3)c(=O)n2C)cc1` [Example 51, 5-[6-(4-amino-piperidin-1-yl)-3-(4-methoxy-phenyl)-4-methyl-5-oxo-4,5-dihydro-pyrazin-2-yl]-pyridine-2-carbonitrile], for which the IC50 against full-length human LSD1 and in the test on THP-1 (AML) cells was under 100 nM in each case.
Regarding `N#Cc1ccc(-c2cn(Cc3ccccc3)c(=O)c(N3CCC(N)CC3)n2)cc1` [Example 1, 4-[6-(4-aminopiperidin-1-yl)-4-benzyl-5-oxo-4,5-dihydropyrazin-2-yl]benzonitrile], the IC50 is under 100 nM on full-length human LSD1 and 100 to 1000 nM with THP-1 (AML) cells.
In the case of `COc1ccc(-c2c(-c3ccc(C#N)nc3)cc(NC[C@H]3CCNC3)c(=O)n2C)cc1` [Example 69, (S)-5-(2-(4-methoxyphenyl)-1-methyl-6-oxo-5-(pyrrolidin-3-ylmethylamino)-1,6-dihydropyridin-3-yl)picolinonitrile], the results for the IC50 at full-length human LSD1 and in the test with THP-1 (AML) cells were under 100 nM and 100 to 1000 nM, respectively.
The matching figures for `Cc1ccc(-c2c(-c3ccc(C#N)cc3)nc(NC[C@H]3CCNC3)c(=O)n2C)cc1` [Example 17, 4-[4-methyl-3-(4-methylphenyl)-5-oxo-6-{[(3S)-pyrrolidin-3-ylmethyl]amino}-4,5-dihydropyrazin-2-yl]benzonitrile]: under 100 nM and under 100 nM.
With `CNC1CCN(c2cc(-c3ccc(C#N)c(F)c3)c(-c3ccc(OC)cc3)n(C)c2=O)CC1` [Example 79, 2-fluoro-4-{2-(4-methoxyphenyl)-1-methyl-5-[4-(methylamino)piperidyl]-6-oxo(3-hydropyridyl)}benzenecarbonitrile], the IC50 on full-length human LSD1 and with THP-1 (AML) cells was under 100 nM in each case.
For `C[C@@H](c1ccccc1)n1cc(-c2ccc(C#N)cc2)nc(N2CCC(N)CC2)c1=O` [Example 13, 4-[6-(4-aminopiperidin-1-yl)-5-oxo-4-[(1S)-1-phenylethyl]-4,5-dihydropyrazin-2-yl]benzonitrile], the IC50 at full-length human LSD1 was under 100 nM; in the test with THP-1 (AML) cells it was 1000 to 10000 nM.
The matching figures for `COc1ccc(-c2c(-c3ccc(C#N)c(F)c3)nc(N3CCC(N)CC3)c(=O)n2C)cc1` [Example 52, 4-[6-(4-amino-piperidin-1-yl)-3-(4-methoxy-phenyl)-4-methyl-5-oxo-4,5-dihydro-pyrazin-2-yl]-2-fluoro-benzonitrile]: under 100 nM and under 100 nM.
On to `Cn1c(-c2ccc(C3CC3)cc2)c(-c2ccc(C#N)cc2)nc(NC[C@@H]2CCNC2)c1=O` [Example 35, 4-[3-(4-cyclopropylphenyl)-4-methyl-5-oxo-6-{[(3R)-pyrrolidin-3-ylmethyl]amino}-4,5-dihydropyrazin-2-yl]benzonitrile], for which the half-maximal inhibitory concentration (IC50) is under 100 nM against full-length human LSD1 and 100 to 1000 nM in the test with THP-1 (AML) cells.
`N#Cc1ccc(-c2cn(CC3CC3)c(=O)c(N3CCC(N)CC3)n2)cc1F` [Example 7, 4-[6-(4-amino-piperidin-1-yl)-4-cyclopropylmethyl-5-oxo-4,5-dihydro-pyrazin-2-yl]-2-fluoro-benzonitrile]: the IC50 on full-length human LSD1 was under 100 nM; in the test with THP-1 (AML) cells it was 1000 to 10000 nM.
Take `COc1ccc(Cn2cc(-c3ccc(C#N)cc3)nc(N3CCC(N)CC3)c2=O)cc1` [Example 11, 4-[6-(4-aminopiperidin-1-yl)-4-[(4-methoxyphenyl)methyl]-5-oxo-4,5-dihydropyrazin-2-yl]benzonitrile]: the IC50 was under 100 nM against full-length human LSD1 and 100 to 1000 nM in the test on THP-1 (AML) cells.
The matching figures for `COc1ccc(-c2c(-c3ccc(C#N)c(F)c3)nc(N3CCC(N)CC3)c(=O)n2CCCC(N)=O)cc1` [Example 90, 4-[3-(4-aminopiperidyl)-5-(4-cyano-3-fluorophenyl)-6-(4-methoxyphenyl)-2-oxohydropyrazinyl]butanamide]: under 100 nM and under 100 nM.
As for `Cc1ccc(-c2c(-c3ccc(C#N)cc3)nc(N3CCC(C)(N)CC3)c(=O)n2C)cc1` [Example 21, 4-[6-(4-amino-4-methylpiperidin-1-yl)-4-methyl-3-(4-methylphenyl)-5-oxo-4,5-dihydropyrazin-2-yl]benzonitrile], the results for the IC50 on full-length human LSD1 and in the test on THP-1 (AML) cells were under 100 nM and 100 to 1000 nM, respectively.
The matching figures for `COc1cccc(Cn2cc(-c3ccc(C#N)cc3)nc(N3CCC(N)CC3)c2=O)c1` [Example 10, 4-[6-(4-aminopiperidin-1-yl)-4-[(3-methoxyphenyl)methyl]-5-oxo-4,5-dihydropyrazin-2-yl]benzonitrile]: under 100 nM and 100 to 1000 nM.
The matching figures for `N#Cc1ccc(-c2cn(Cc3ccccc3F)c(=O)c(N3CCC(N)CC3)n2)cc1` [Example 3, 4-[6-(4-aminopiperidin-1-yl)-4-[(2-fluorophenyl)methyl]-5-oxo-4,5-dihydropyrazin-2-yl]benzonitrile]: under 100 nM and 100 to 1000 nM.
The matching figures for `Cc1ccc(-c2c(-c3ccc(C#N)cc3)nc(N3CCC(N)CC3)c(=O)n2C)cn1` [Example 49, 4-[6-(4-amino-piperidin-1-yl)-4-methyl-3-(6-methyl-pyridin-3-yl)-5-oxo-4,5-dihydro-pyrazin-2-yl]-benzonitrile]: under 100 nM and under 100 nM.
`COc1ccc(-c2c(-c3ccc(C#N)c(F)c3)nc(N3CCC(N)CC3)c(=O)n2CCC(N)=O)cc1` [Example 89, 3-[3-(4-aminopiperidyl)-5-(4-cyano-3-fluorophenyl)-6-(4-methoxyphenyl)-2-oxohydropyrazinyl]propanamide]: the IC50 against full-length human LSD1 and in the test on THP-1 (AML) cells was under 100 nM each time.
Turning to `CNC1CCN(c2nc(-c3ccc(C#N)c(F)c3)c(-c3ccc(C)cc3)n(CCO)c2=O)CC1` [Example 65, 2-Fluoro-4-[4-(2-hydroxy-ethyl)-6-(4-methylamino-piperidin-1-yl)-5-oxo-3-p-tolyl-4,5-dihydro-pyrazin-2-yl]-benzonitrile], the IC50 against full-length human LSD1 and with THP-1 (AML) cells was under 100 nM throughout.
Regarding `COCCCn1c(-c2ccc(C)cc2)c(-c2ccc(C#N)cc2)nc(N2CCC(N)CC2)c1=O` [Example 39, 4-[6-(4-amino-piperidin-1-yl)-4-(3-methoxy-propyl)-5-oxo-3-p-tolyl-4,5-dihydro-pyrazin-2-yl]-benzonitrile], the IC50 at full-length human LSD1 and with THP-1 (AML) cells was under 100 nM in each case.
On to `Cn1c(-c2ccc(OC(F)(F)F)cc2)c(-c2ccc(C#N)c(F)c2)nc(NC[C@H]2CCNC2)c1=O` [Example 63, 2-fluoro-4-[4-methyl-5-oxo-6-[((3S)-pyrrolidin-3-ylmethyl)-amino]-3-(4-trifluoromethoxy-phenyl)-4,5-dihydro-pyrazin-2-yl]-benzonitrile], for which the IC50 against full-length human LSD1 and in the test with THP-1 (AML) cells was under 100 nM in each case.
Turning to `CNC1CCN(c2cc(-c3ccc(C#N)cc3)c(-c3ccc(N(C)C)nc3)n(C)c2=O)CC1` [Example 92, 4-{2-[6-(dimethylamino)(3-pyridyl)]-1-methyl-5-[4-(methylamino)piperidyl]-6-oxo-3-hydropyridyl}benzenecarbonitrile], the IC50 at full-length human LSD1 and in the test on THP-1 (AML) cells was under 100 nM throughout.
In the case of `COc1ccc(-c2c(-c3ccc(C#N)cc3)cc(N3CCC(N)CC3)c(=O)n2CC2CC2)cc1` [Example 81, 4-[5-(4-aminopiperidin-1-yl)-1-(cyclopropylmethyl)-2-(4-methoxyphenyl)-6-oxopyridin-3-yl]benzonitrile], the IC50 against full-length human LSD1 and in the test on THP-1 (AML) cells was under 100 nM throughout.
On to `CCc1ccc(-c2c(-c3ccc(C#N)nc3)nc(NC[C@H]3CCNC3)c(=O)n2C)cc1` [Example 56, 5-{3-(4-ethyl-phenyl)-4-methyl-5-oxo-6-[((3S)-pyrrolidin-3-ylmethyl)-amino]-4,5-dihydro-pyrazin-2-yl}-pyridine-2-carbonitrile], for which the IC50 against full-length human LSD1 and in the test with THP-1 (AML) cells was under 100 nM in each case.
On to `CCc1ccc(-c2c(-c3ccc(C#N)cc3)nc(NC[C@@H]3CCNC3)c(=O)n2C)cc1` [Example 29, 4-[3-(4-ethylphenyl)-4-methyl-5-oxo-6-{[(3R)-pyrrolidin-3-ylmethyl]amino}-4,5-dihydropyrazin-2-yl]benzonitrile], for which the half-maximal inhibitory concentration (IC50) on full-length human LSD1 is under 100 nM; with THP-1 (AML) cells, 100 to 1000 nM.
The matching figures for `CCc1ccc(-c2c(-c3ccc(C#N)cc3)nc(N3CCC(N)CC3)c(=O)n2C)cc1` [Example 27, 4-[6-(4-aminopiperidin-1-yl)-3-(4-ethylphenyl)-4-methyl-5-oxo-4,5-dihydropyrazin-2-yl]benzonitrile]: under 100 nM and under 100 nM.
In the case of `COCCCn1c(-c2ccc(C)cc2)c(-c2ccc(C#N)c(F)c2)nc(N2CCC(N)CC2)c1=O` [Example 45, 4-[6-(4-aminopiperidyl)-4-(3-methoxypropyl)-3-(4-methylphenyl)-5-oxo(4-hydropyrazin-2-yl)]-2-fluorobenzenecarbonitrile], the IC50 against full-length human LSD1 and with THP-1 (AML) cells was under 100 nM throughout.
